{"source": "patent US10786571B2", "about": "“Hydrophilic gel for topical delivery of 5-aminolevulinic acid” (Zimmer Biotech GmbH, priority 2015, dated 2020)", "key": {"[1]": {"test": "Stability of 5-ALA / product", "format": "physicochemical", "details": "different storage conditions"}, "[2]": {"details": "aqueous solution; cited from earlier work"}, "[3]": {"details": "cited from earlier work"}}, "data": [{"molecule": "NCC(=O)CCC(=O)O", "note": "[5-ALA, 5-aminolevulinic acid]", "values": [{"measurement": "long-term stability in double chamber tube", "setting": "[1]", "value": "long-term stable at different storage conditions without degradation"}, {"measurement": "pH of best stability of aqueous solutions", "setting": "[2]", "value": "< 6"}, {"measurement": "sensitivity to daylight after treatment", "setting": "[3]", "value": "1 to 2", "unit": "days"}]}, {"molecule": "Porfimer Sodium [Photofrin]", "values": [{"measurement": "sensitivity to daylight after treatment", "setting": "[3]", "value": "30 to 60", "unit": "days"}]}]}
